Reference: ChEMBL document CHEMBL1909046, “DrugMatrix in vitro pharmacology data”

What was measured:
[1] = target: T1, Alpha-1A adrenergic receptor (Rattus norvegicus, UniProt P43140); assay: DRUGMATRIX: Alpha-1A adrenergic receptor radioligand binding (ligand: prazosin); type: cell membranes, Wistar, Submaxillary gland, Membrane; details: Not Active = under 50% inhibition at 10 µM
T1 sequence (P43140 whole entry): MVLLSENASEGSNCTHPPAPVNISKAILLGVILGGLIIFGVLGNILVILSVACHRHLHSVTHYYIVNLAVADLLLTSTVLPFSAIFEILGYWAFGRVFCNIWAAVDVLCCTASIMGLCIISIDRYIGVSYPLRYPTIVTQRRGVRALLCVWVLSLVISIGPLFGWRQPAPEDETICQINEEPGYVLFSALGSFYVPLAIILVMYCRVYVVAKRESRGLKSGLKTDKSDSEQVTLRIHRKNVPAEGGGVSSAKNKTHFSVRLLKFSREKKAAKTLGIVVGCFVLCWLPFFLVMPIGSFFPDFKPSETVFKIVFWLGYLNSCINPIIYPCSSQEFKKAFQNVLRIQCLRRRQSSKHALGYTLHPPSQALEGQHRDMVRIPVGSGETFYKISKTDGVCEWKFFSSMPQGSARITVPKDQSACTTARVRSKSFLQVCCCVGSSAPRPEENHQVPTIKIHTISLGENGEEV

Cytochrome P450 2E1 = Cytochrome P450 2E1 (Homo sapiens, UniProt P05181); details: bti-tn-5b1-4; further: in other assays of this panel Not Active means under 50% inhibition at 10 µM
[2] = target: Sodium-dependent dopamine transporter (Homo sapiens, UniProt Q01959); assay: DRUGMATRIX: Dopamine Transporter radioligand binding (ligand: [125I] RTI-55); type: cell membranes, CHO-K1, Membrane; details: cho-k1; Not Active = under 50% inhibition at 10 µM
[3] = DRUGMATRIX: Phosphodiesterase PDE3 enzyme inhibition (substrate: [3H]cAMP + cAMP); type: tissue-based, Homo sapiens; details: platelet; Not Active = under 50% inhibition at 10 µM
[4] = target: Aldo-keto reductase family 1 member B1 (Rattus norvegicus, UniProt P07943); type: tissue-based, Lens of camera-type eye;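 further: inhibition of aldose reductase enzyme activity, measured with DL-glyceraldehyde as the substrate; in other assays of this panel Not Active means under 50% inhibition at 10 µM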
[5] = DRUGMATRIX: Sodium/nucleoside co-transporter radioligand binding (ligand: nitrobenzylthioinosine); type: cell membranes, Cavia porcellus, Dunkin-Hartley, Cerebral cortex, Membrane; details: Not Active = under 50% inhibition at 10 µM
Calcitonin receptor = target: T2, Calcitonin receptor (Homo sapiens, UniProt P30988); type: cell membranes, Membrane; details: t47d; further: in other assays of this panel Not Active means under 50% inhibition at 10 µM
T2 sequence (P30988 whole entry): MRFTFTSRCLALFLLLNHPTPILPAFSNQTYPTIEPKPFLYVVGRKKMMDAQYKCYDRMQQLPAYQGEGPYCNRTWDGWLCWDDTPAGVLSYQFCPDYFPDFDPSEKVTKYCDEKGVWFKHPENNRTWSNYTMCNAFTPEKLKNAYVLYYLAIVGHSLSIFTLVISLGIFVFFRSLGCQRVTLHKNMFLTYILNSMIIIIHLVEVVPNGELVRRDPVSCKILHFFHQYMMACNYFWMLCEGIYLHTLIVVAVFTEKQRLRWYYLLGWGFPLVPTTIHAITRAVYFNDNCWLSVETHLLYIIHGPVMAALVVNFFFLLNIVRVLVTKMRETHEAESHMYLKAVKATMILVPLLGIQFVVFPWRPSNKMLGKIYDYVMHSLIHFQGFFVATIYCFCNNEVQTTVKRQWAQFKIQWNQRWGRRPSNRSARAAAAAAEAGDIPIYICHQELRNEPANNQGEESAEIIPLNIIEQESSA

Sequence of Sodium-dependent dopamine transporter (Q01959 whole entry): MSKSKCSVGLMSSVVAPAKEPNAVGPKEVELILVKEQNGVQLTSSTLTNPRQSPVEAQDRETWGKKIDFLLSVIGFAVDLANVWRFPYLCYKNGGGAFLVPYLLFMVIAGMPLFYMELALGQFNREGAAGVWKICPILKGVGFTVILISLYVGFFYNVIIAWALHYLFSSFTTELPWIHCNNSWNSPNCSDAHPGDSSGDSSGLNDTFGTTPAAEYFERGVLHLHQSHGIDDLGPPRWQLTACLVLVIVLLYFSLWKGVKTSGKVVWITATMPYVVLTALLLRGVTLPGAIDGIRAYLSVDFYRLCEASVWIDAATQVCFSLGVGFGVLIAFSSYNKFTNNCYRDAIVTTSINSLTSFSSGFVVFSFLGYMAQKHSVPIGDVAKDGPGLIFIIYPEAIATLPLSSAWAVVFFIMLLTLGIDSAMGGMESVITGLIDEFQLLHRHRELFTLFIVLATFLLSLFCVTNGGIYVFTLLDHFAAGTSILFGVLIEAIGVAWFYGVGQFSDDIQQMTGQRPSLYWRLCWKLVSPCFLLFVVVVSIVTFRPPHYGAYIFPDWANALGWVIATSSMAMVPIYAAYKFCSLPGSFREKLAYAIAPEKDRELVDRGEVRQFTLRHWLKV
Sequence of Cytochrome P450 2E1 (P05181 whole entry): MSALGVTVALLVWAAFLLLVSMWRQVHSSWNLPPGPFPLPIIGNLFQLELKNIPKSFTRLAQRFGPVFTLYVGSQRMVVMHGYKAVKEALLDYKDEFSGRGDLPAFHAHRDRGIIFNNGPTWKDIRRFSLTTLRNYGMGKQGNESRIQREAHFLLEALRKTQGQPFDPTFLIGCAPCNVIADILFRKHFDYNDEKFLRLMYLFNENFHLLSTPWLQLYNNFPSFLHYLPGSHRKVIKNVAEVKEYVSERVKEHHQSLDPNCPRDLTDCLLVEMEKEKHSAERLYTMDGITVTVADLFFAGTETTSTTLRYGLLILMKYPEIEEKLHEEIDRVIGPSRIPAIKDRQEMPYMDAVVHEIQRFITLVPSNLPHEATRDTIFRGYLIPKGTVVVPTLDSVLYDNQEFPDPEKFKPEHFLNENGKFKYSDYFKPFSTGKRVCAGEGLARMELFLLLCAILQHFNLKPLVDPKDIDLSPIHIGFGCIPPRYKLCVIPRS

C[C@H]1C[C@@H]2[C@H]([C@@H](O)C[C@@]3(C)[C@H]2CC[C@]3(O)C(=O)CO)[C@@]2(C)C=CC(=O)C=C12 [METHYLPREDNISOLONE]
Not Active: IC50 [1] | IC50 (Cytochrome P450 2E1) | Ki (Cytochrome P450 2E1) | IC50 [2] | IC50 [3] | Ki [3] | IC50 [4] | IC50 [5] | Ki [5] | IC50 (Calcitonin receptor)

Cc1cccc(C)c1OCC(C)N (stereo not given) [MEXILETINE]
Not Active: IC50 [1] | IC50 (Cytochrome P450 2E1) | Ki (Cytochrome P450 2E1) | IC50 [2] | IC50 [3] | Ki [3] | IC50 [4] | IC50 [5] | Ki [5] | IC50 (Calcitonin receptor)

Nc1cc(N2CCCCC2)nc(N)[n+]1[O-] [MINOXIDIL]
Not Active: IC50 [1] | IC50 (Cytochrome P450 2E1) | Ki (Cytochrome P450 2E1) | IC50 [2] | IC50 [3] | Ki [3] | IC50 [4] | IC50 [5] | Ki [5] | IC50 (Calcitonin receptor)

CO[C@H]1/C=C/O[C@@]2(C)Oc3c(C)c(O)c4c(O)c(c(/C=N/N5CCN(C6CCCC6)CC5)c(O)c4c3C2=O)NC(=O)/C(C)=C\C=C\[C@H](C)[C@H](O)[C@@H](C)[C@@H](O)[C@@H](C)[C@H](OC(C)=O)[C@@H]1C [RIFAPENTINE]
Not Active: IC50 [1] | IC50 (Cytochrome P450 2E1) | Ki (Cytochrome P450 2E1) | IC50 [2] | IC50 [3] | Ki [3] | IC50 [4] | IC50 [5] | Ki [5] | IC50 (Calcitonin receptor)

CCCCOc1cc(CC2CNC(=O)N2)ccc1OC (stereo not given) [RO-201724]
Not Active: IC50 [1] | IC50 (Cytochrome P450 2E1) | Ki (Cytochrome P450 2E1) | IC50 [2] | IC50 [3] | Ki [3] | IC50 [4] | IC50 [5] | Ki [5] | IC50 (Calcitonin receptor)

CC[C@@H](C(=O)[C@@H](C)[C@@H](O)[C@H](C)[C@@H]1O[C@@H]([C@@H](CC)C(=O)O)CC[C@@H]1C)[C@H]1O[C@]2(C=C[C@@H](O)[C@]3(CC[C@@](C)([C@H]4CC[C@](O)(CC)[C@H](C)O4)O3)O2)[C@H](C)C[C@@H]1C [SALINOMYCIN]
Not Active: IC50 [1] | IC50 (Cytochrome P450 2E1) | Ki (Cytochrome P450 2E1) | IC50 [2] | IC50 [3] | Ki [3] | IC50 [4] | IC50 [5] | Ki [5] | IC50 (Calcitonin receptor)

O=C(Oc1ccccc1C(=O)O)c1ccccc1O [SALSALATE]
Not Active: IC50 [1] | IC50 (Cytochrome P450 2E1) | Ki (Cytochrome P450 2E1) | IC50 [2] | IC50 [3] | Ki [3] | IC50 [4] | IC50 [5] | Ki [5] | IC50 (Calcitonin receptor)

O=C(O)c1cn(-c2ccc(F)cc2)c2cc(N3CCNCC3)c(F)cc2c1=O [SARAFLOXACIN]
Not Active: IC50 [1] | IC50 (Cytochrome P450 2E1) | Ki (Cytochrome P450 2E1) | IC50 [2] | IC50 [3] | Ki [3] | IC50 [4] | IC50 [5] | Ki [5] | IC50 (Calcitonin receptor)

CC(C)NCC(O)c1ccc(NS(C)(=O)=O)cc1 (stereo not given) [SOTALOL]
Not Active: IC50 [1] | IC50 (Cytochrome P450 2E1) | Ki (Cytochrome P450 2E1) | IC50 [2] | IC50 [3] | Ki [3] | IC50 [4] | IC50 [5] | Ki [5] | IC50 (Calcitonin receptor)

O.O.O.O.O.O.[Cl-].[Cl-].[Sr+2] [STRONTIUM CHLORIDE HEXAHYDRATE]
Not Active: IC50 [1] | IC50 (Cytochrome P450 2E1) | Ki (Cytochrome P450 2E1) | IC50 [2] | IC50 [3] | Ki [3] | IC50 [4] | IC50 [5] | Ki [5] | IC50 (Calcitonin receptor)

O=C1C(CC[S+]([O-])c2ccccc2)C(=O)N(c2ccccc2)N1c1ccccc1 (stereo not given) [SULFINPYRAZONE]
Not Active: IC50 [1] | IC50 (Cytochrome P450 2E1) | Ki (Cytochrome P450 2E1) | IC50 [2] | IC50 [3] | Ki [3] | IC50 [4] | IC50 [5] | Ki [5] | IC50 (Calcitonin receptor)

NC(=O)N1C(=O)/C(=C(\O)c2cccs2)c2cc(Cl)ccc21 [TENIDAP]
Not Active: IC50 [1] | IC50 (Cytochrome P450 2E1) | Ki (Cytochrome P450 2E1) | IC50 [2] | IC50 [3] | Ki [3] | IC50 [4] | IC50 [5] | Ki [5] | IC50 (Calcitonin receptor)

CN(C/C=C/C#CC(C)(C)C)Cc1cccc2ccccc12 [TERBINAFINE]
Not Active: IC50 [1] | IC50 (Cytochrome P450 2E1) | Ki (Cytochrome P450 2E1) | IC50 [2] | IC50 [3] | Ki [3] | IC50 [4] | IC50 [5] | Ki [5] | IC50 (Calcitonin receptor)

CCCCNc1ccc(C(=O)OCCN(C)C)cc1 [TETRACAINE]
Not Active: IC50 [1] | IC50 (Cytochrome P450 2E1) | Ki (Cytochrome P450 2E1) | IC50 [2] | IC50 [3] | Ki [3] | IC50 [4] | IC50 [5] | Ki [5] | IC50 (Calcitonin receptor)

Cn1c(=O)c2nc[nH]c2n(C)c1=O.O [THEOPHYLLINE]
Not Active: IC50 [1] | IC50 (Cytochrome P450 2E1) | Ki (Cytochrome P450 2E1) | IC50 [2] | IC50 [3] | Ki [3] | IC50 [4] | IC50 [5] | Ki [5] | IC50 (Calcitonin receptor)
